Test results from patent publication EP0655506B1 (priority 1994, dated 1995).

Biological target: T1, T7 DNA polymerase (28 amino acid deletion in the exonuclease domain, complexed with thioredoxin), tyrosine at residue 526 (WT) (Escherichia phage T7, UniProt P00581, DEL118-145)
T1 construct: made in house; host or cells: strain that produces E. coli thioredoxin, lac promoter
Experiment: Gel electrophoresis-based rate of incorporation of dideoxynucleotides relative to deoxynucleotides, 1:1 ratio of dNTPs to ddNTPs (Example 6)
Format: biochemical, bacteriophage T7
Details: for D, discrimination factor (ratio of the use of a specific dNTP to the use of the comparable ddNTP at equal concentrations): 100 µM 4dNTPs and 100 µM of one ddNTP, 5 mM MgCl2, 37 °C; for Incorporation Rate Ratios (dN/ddN): stated to be the absolute ratios obtained in Example 6 (1:1 dNTPs to ddNTPs)
Excerpt: The primary application of this test is to determine the absolute ratio of incorporation of a ddNMP to a dNMP for a DNA polymerase that efficiently incorporates dideoxynucleotides, such as T7 DNA polymerase, E. coli DNA polymerase I mutant F762Y or Taq DNA polymerase mutant F667Y. It can also indicate the level of discrimination against ddNTPs of any DNA polymerase; however, for DNA polymerases that discriminate strongly against ddNTPs, such as T7 DNA polymerase mutant Y526F, E. coli DNA polymerase I or Taq DNA polymerase, higher ratios of ddNTP to dNTP are necessary to determine precisely their level of discrimination, which is described in detail in Example 7.
DNA synthesis reactions are carried out on the ^32P-end labeled 40 mer-M 13 mGP1-2 DNA template complex prepared as described in Example 3. Reaction conditions are used that are optimum for the DNA polymerase being tested with regard to buffer, pH, salts, and temperature of the reaction. A concentration of DNA polymerase is chosen whereby most of the primers are extended in a 10 min reaction and are terminated by the incorporation of a dideoxynucleotide. The reaction mixture contains 100 µM 4dNTPs and 100 µM of one of the four ddNTPs.
We used this test to compare the ability of six DNA polymerases to incorporate each of the four ddNMPs. The DNA polymerases tested were (1) T7 DNA polymerase with a 28 amino acid deletion in the exonuclease domain and complexed in a one-to-one ratio with thioredoxin (Tabor and Richardson 264 J. Biol. Chem. 6447, 1989) (referred to here as "T7 DNA polymerase"), (2) The large fragment of E. coli DNA polymerase I, commonly called the Klenow fragment (referred to here as "E. coli DNA polymerase I"), (3) Unmodified DNA polymerase from Thermus aquaticus (referred to here as "Taq DNA polymerase"), (4) T7 DNA polymerase as described above in which the tyrosine at residue 526 has been changed to a phenylalanine (referred to here as "T7 DNA polymerase Y526F"), (5) E. coli DNA polymerase I as described above in which the phenylalanine at residue 762 has been changed to a tyrosine (referred to here as "E. coli DNA polymerase I F762Y"), and (6) Taq DNA polymerase as described above in which the phenylalanine at residue 667 has been changed to a tyrosine (referred to here as "Taq DNA polymerase F667Y").
The reaction mixtures also contained 10 ng of yeast inorganic pyrophosphatase to inhibit pyrophosphorolysis that could otherwise increase the apparent discrimination by the DNA polymerase (Tabor and Richardson 265 j. Biol. Chem. 8322, 1990). The reactions were initiated by the addition of 2 µl of each DNA polymerase, diluted in 20 mM TrisHCl, pH 7.5, 10 mM 2-mercaptoethanol and 0.05% bovine serum albumin to a concentration of approximately 0.025 units/µl. The concentration of each DNA polymerase was sufficient to extend most of the labeled primers by more than 500 nucleotides in the absence of ddNTPs in a 15 min reaction. The reaction mixtures were incubated for 15 min at either 37 °C (T7 DNA polymerase, T7 DNA polymerase Y526F, E. coli DNA polymerase I, and E. coli DNA polymerase F762Y) or 70 °C (Taq DNA polymerase and Taq DNA polymerase F667Y). The reactions were terminated by the addition of 10 µl 90% formamide, 20 mM EDTA, 0.05% bromphenol blue. Each sample was heated at 90°C for 2 min immediately prior to loading 6 µl of each sample onto a gel consisting of 8% polyacrylamide, 0.4% N,N'-methylenebisacrylamide, 7 M urea in 100 mM Trisborate, pH 8.3, 1 mM EDTA. Electrophoresis was at 2000 Volts for 90 min (until the bromphenol blue had just run off the bottom of the gel). After electrophoresis, the gel was dried under vacuum, and autoradiographed. After autoradiography, the distribution of radioactively labeled fragments was determined by Phosphorimager analysis (Molecular Dynamics). […]

T1 sequence (P00581 other isoform, or with tags, fused parts or gaps DEL118-145): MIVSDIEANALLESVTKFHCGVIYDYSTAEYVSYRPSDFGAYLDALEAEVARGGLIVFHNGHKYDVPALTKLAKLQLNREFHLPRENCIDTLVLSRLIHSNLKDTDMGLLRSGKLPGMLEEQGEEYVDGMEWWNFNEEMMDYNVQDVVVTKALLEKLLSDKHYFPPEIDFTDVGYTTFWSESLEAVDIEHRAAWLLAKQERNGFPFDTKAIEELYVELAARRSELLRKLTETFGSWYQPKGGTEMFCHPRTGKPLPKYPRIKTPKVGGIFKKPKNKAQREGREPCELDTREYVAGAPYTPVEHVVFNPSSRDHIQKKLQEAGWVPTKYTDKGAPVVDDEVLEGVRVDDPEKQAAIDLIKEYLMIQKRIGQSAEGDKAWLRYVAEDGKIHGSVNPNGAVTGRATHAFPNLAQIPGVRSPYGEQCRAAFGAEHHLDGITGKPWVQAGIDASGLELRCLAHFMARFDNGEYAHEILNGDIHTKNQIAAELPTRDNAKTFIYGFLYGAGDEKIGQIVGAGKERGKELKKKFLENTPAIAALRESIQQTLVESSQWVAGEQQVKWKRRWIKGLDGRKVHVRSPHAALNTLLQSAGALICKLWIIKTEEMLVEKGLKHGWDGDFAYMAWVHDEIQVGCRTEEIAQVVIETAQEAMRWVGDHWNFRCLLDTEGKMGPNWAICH
T1 sequence (P0AA25 2-109, stated change not applied, further chain): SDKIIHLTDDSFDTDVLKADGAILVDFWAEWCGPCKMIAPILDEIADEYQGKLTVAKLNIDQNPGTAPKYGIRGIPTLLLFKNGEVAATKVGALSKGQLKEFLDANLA

Row | SMILES | D, discrimination factor (ratio of the use of a specific dNTP to the use of the comparable ddNTP at equal concentrations) | Incorporation Rate Ratios (dN/ddN)
1 | Nc1ncnc2c1ncn2[C@H]1CC[C@@H](COP(=O)(O)OP(=O)(O)OP(=O)(O)O)O1 [ddATP] | 2.3 | 3.3
2 | Nc1ccn([C@H]2CC[C@@H](COP(=O)(O)OP(=O)(O)OP(=O)(O)O)O2)c(=O)n1 [ddCTP] | 2.7 | 3.7
3 | Nc1nc2c(ncn2[C@H]2CC[C@@H](COP(=O)(O)OP(=O)(O)OP(=O)(O)O)O2)c(=O)[nH]1 [ddGTP] | 2.2 | 3.2
4 | Cc1cn([C@H]2CC[C@@H](COP(=O)(O)OP(=O)(O)OP(=O)(O)O)O2)c(=O)[nH]c1=O [ddTTP] | 1.8 | 2.8
